# Numbered stars: 1 amine (or outer) side, 2 acyl side, 3 side chain; on linkers, the order of the positions; unused ones are H or OH. Bridge positions count the residues as written; N and C are the ends. Square brackets hold non-standard residues; d marks the D form. * marks the point of attachment. PEG24 = NCCOCCOCCOCCOCCOCCOCCOCCOCCOCCOCCOCCOCCOCCOCCOCCOCCOCCOCCOCCOCCOCCOCCOCCOCCC(=O)O; C20 diacid = O=C(O)CCCCCCCCCCCCCCCCCCC(=O)*; γGlu = O=C(O)[C@H](CCC(=O)[*:2])N[*:1]; 4Pal = N[C@@H](Cc1ccncc1)C(=O)O; CH2 = C([*:1])[*:2]
# What was measured:
# plasma cGMP = assay: In vivo monkey studies, plasma cGMP ELISA; design: species or system male cynomolgus monkeys; conditions: for Net cGMP (nM) Change from Baseline 0.083 h / Net cGMP (nM) Change from Baseline 0.25 h / Net cGMP (nM) Change from Baseline 0.5 h / Net cGMP (nM) Change from Baseline 1 h / Net cGMP (nM) Change from Baseline 2 h / Net cGMP (nM) Change from Baseline 4 h / Net cGMP (nM) Change from Baseline 8 h / Net cGMP (nM) Change from Baseline 12 h / Net cGMP (nM) Change from Baseline 24 h / Net cGMP (nM) Change from Baseline 36 h / Net cGMP (nM) Change from Baseline 48 h / Net cGMP (nM) Change from Baseline 72 h / Net cGMP (nM) Change from Baseline 96 h / Net cGMP (nM) Change from Baseline 120 h / Net cGMP (nM) Change from Baseline 144 h / Net cGMP (nM) Change from Baseline 168 h: dose 100 nmol/kg, monkey plasma; for Net cGMP (nM) Change from Baseline 0.083 h: 0.083 h postdose; for Net cGMP (nM) Change from Baseline 0.25 h: 0.25 h postdose; for Net cGMP (nM) Change from Baseline 0.5 h: 0.5 h postdose; for Net cGMP (nM) Change from Baseline 1 h: 1 h postdose; for Net cGMP (nM) Change from Baseline 2 h: 2 h postdose; for Net cGMP (nM) Change from Baseline 4 h: 4 h postdose; for Net cGMP (nM) Change from Baseline 8 h: 8 h postdose; for Net cGMP (nM) Change from Baseline 12 h: 12 h postdose; for Net cGMP (nM) Change from Baseline 24 h: 24 h postdose; for Net cGMP (nM) Change from Baseline 36 h: 36 h postdose; for Net cGMP (nM) Change from Baseline 48 h: 48 h postdose; for Net cGMP (nM) Change from Baseline 72 h: 72 h postdose; for Net cGMP (nM) Change from Baseline 96 h: 96 h postdose; for Net cGMP (nM) Change from Baseline 120 h: 120 h postdose; for Net cGMP (nM) Change from Baseline 144 h: 144 h postdose; for Net cGMP (nM) Change from Baseline 168 h: 168 h postdose; for net cGMP levels (result in words): monkeys, single SC dose, plasma
# Summary of the method: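 First, monkeys (male cynomolgus) are dosed subcutaneously once and bled before dosing and at fixed times. Then plasma is diluted 1:20 and acetylated. Next it is incubated 2 h at room temperature with conjugate and antibody, developed with pNpp and read at 405 nm. Finally, predose cGMP is subtracted per animal.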
# [1] = Pharmacokinetics in male Sprague Dawley rats; assay type: in vivo; conditions: rat, sc, mean, single subcutaneous administration of 200 nMol/kg, plasma; for half-life: read-out: t½ (converted)
# Summary of the method: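 Male Sprague Dawley rats received a single subcutaneous dose of […], with blood sampled over 120 hours. Intact peptide in K3 EDTA plasma was measured by qualified high-resolution LC/MS after methanol/0.1% formic acid extraction with an analog internal standard; PK parameters from individual plasma concentrations.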
Compound,Net cGMP (nM) Change from Baseline 0.083 h (plasma cGMP) [nM],Net cGMP (nM) Change from Baseline 0.25 h (plasma cGMP) [nM],Net cGMP (nM) Change from Baseline 0.5 h (plasma cGMP) [nM],Net cGMP (nM) Change from Baseline 1 h (plasma cGMP) [nM],Net cGMP (nM) Change from Baseline 2 h (plasma cGMP) [nM],Net cGMP (nM) Change from Baseline 4 h (plasma cGMP) [nM],Net cGMP (nM) Change from Baseline 8 h (plasma cGMP) [nM],Net cGMP (nM) Change from Baseline 12 h (plasma cGMP) [nM],Net cGMP (nM) Change from Baseline 24 h (plasma cGMP) [nM],Net cGMP (nM) Change from Baseline 36 h (plasma cGMP) [nM],Net cGMP (nM) Change from Baseline 48 h (plasma cGMP) [nM],Net cGMP (nM) Change from Baseline 72 h (plasma cGMP) [nM],Net cGMP (nM) Change from Baseline 96 h (plasma cGMP) [nM],Net cGMP (nM) Change from Baseline 120 h (plasma cGMP) [nM],Net cGMP (nM) Change from Baseline 144 h (plasma cGMP) [nM],Net cGMP (nM) Change from Baseline 168 h (plasma cGMP) [nM],net cGMP levels (result in words) (plasma cGMP),CL/F [1] [mL/min/kg],half-life [1] [h]
CC[C@H](C)[C@@H]1NC(=O)[C@H](CCCNC(=N)N)NC(=O)[C@H](CC(=O)O)NC(=O)[C@H]([C@@H](C)CC)NC(=O)[C@H](CCCNC(=N)N)NC(=O)CNC(=O)CNC(=O)[C@H](Cc2ccccc2)NC(=O)[C@@H](NC(=O)[C@H](CO)NC(=O)[C@H](CO)NC(=O)[C@H](CCCNC(=N)N)NC(=O)CCNC(=O)[C@H](CCCCN)NC(=O)[C@H](CCC(=O)O)NC(=O)CNC(=O)[C@H](CCCCN)NC(=O)[C@H](CCC(=O)O)NC(=O)[C@H](CCCCN)NC(=O)[C@H](CCC(=O)O)NC(=O)[C@H](CCCCN)NC(=O)[C@H](CCC(=O)O)NC(=O)CC[C@H](NC(=O)CCCCCCCCCCCCCCCCCCC(=O)O)C(=O)O)CSCSC[C@@H](C(=O)N2CCC[C@H]2C(=O)N[C@@H](CO)C(=O)N[C@@H](Cc2ccccc2)C(=O)N[C@@H](CCCNC(=N)N)C(=O)N[C@@H](Cc2c[nH]cn2)C(=O)NCC(=O)NCC(=O)N2CCC[C@H]2C(=O)N[C@@H](CO)C(=O)N[C@@H](CO)C(=O)NCC(=O)N[C@@H](C)C(=O)N2CCC[C@H]2C(=O)N2CCC[C@H]2C(=O)N2CCC[C@H]2C(=O)N[C@@H](CO)C(N)=O)NC(=O)CNC(=O)[C@H](CC(C)C)NC(=O)CNC(=O)[C@H](CO)NC(=O)[C@H](Cc2ccc(O)cc2)NC(=O)[C@H](Cc2c[nH]cn2)NC(=O)CNC1=O [Example 56],-2.8,-0.66,-0.65,-0.51,-1.82,1.83,10.57,12.11,17.03,16.59,11.66,11.45,9.32,9.31,7.36,1.99,increased net cGMP levels,0.187,36
{C20 diacid-γGlu}-EKEKEKG[PEG24]S[4Pal]RRSSCFGGRIDRIGHQSGLGCPSFRHGGPSSGAPPPS-NH2 (linker 15-31 via CH2) [Example 61],4.41,24.85,27.32,28.35,25.21,28.38,33.73,23.51,27.96,24.75,11.81,14.82,20.25,12.15,18,11.81,increased net cGMP levels,1.08,6
